ChEMBL document CHEMBL1201862, “PubChem BioAssay data set” (2004)
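Growth conditions: 96-well plates. Treatment: test compound, 48 hours, 5 concentrations. Analysis: linear interpolation between bracketing concentrations; unreached endpoints set to highest concentration. GI50 marks 50% less growth.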 Active and inactive are the calls of the source. No stated cut-off is given here; in the data, active = GI50 up to about 1.1 µM and inactive = higher.

Columns and labels:
Test in all cases: DTP human tumour cell line panel, 48 h
T47D = test system: T47D
EKVX = test system: EKVX
MDA-MB-231 = test system: MDA-MB-231
OVCAR-8 = test system: OVCAR-8
UACC-62 = test system: UACC-62
786-0 = test system: 786-0
IGROV-1 = test system: IGROV-1
A549 = test system: A549
SN12C = test system: SN12C
DU-145 = test system: DU-145
SR = test system: SR
NCI-H226 = test system: NCI-H226
SK-MEL-28 = test system: SK-MEL-28
SW-620 = test system: SW-620
KM12 = test system: KM12
NCI-H23 = test system: NCI-H23
Hs-578T = test system: Hs-578T
TK-10 = test system: TK-10
U-251 = test system: U-251
SF-295 = test system: SF-295

## CCOC(=O)C(C)c1nc2c(Cl)c3ncccc3cc2[nH]c1=O (stereo not given)
T47D
  GI50: 64.3 µM (inactive)
EKVX
  GI50: 31 µM (inactive)
MDA-MB-231
  GI50: 79.1 µM (inactive)
OVCAR-8
  GI50: 36.5 µM (inactive)
UACC-62
  GI50: 43.5 µM (inactive)
786-0
  GI50: > 100 µM (inactive)
IGROV-1
  GI50: 62.2 µM (inactive)
A549
  GI50: 53.2 µM (inactive)
SN12C
  GI50: > 100 µM (inactive)
DU-145
  GI50: > 100 µM (inactive)
SR
  GI50: 12.9 µM (inactive)
NCI-H226
  GI50: 53.3 µM (inactive)
SK-MEL-28
  GI50: > 100 µM (inactive)
SW-620
  GI50: 75.2 µM (inactive)
KM12
  GI50: 43.8 µM (inactive)
NCI-H23
  GI50: 77.1 µM (inactive)
Hs-578T
  GI50: 23.2 µM (inactive)
TK-10
  GI50: 59.7 µM (inactive)
U-251
  GI50: 30.8 µM (inactive)
SF-295
  GI50: 79.8 µM (inactive)

## O=C(C(Cl)Cl)N(O)c1ccccc1OCc1ccccc1
T47D
  GI50: 19.1 µM (inactive)
EKVX
  GI50: 22 µM (inactive)
MDA-MB-231
  GI50: 44.8 µM (inactive)
OVCAR-8
  GI50: 8.95 µM (inactive)
UACC-62
  GI50: 24.3 µM (inactive)
786-0
  GI50: 83.2 µM (inactive)
IGROV-1
  GI50: 68.2 µM (inactive)
A549
  GI50: 33.8 µM (inactive)
SN12C
  GI50: 49.2 µM (inactive)
DU-145
  GI50: 17 µM (inactive)
SR
  GI50: 22.9 µM (inactive)
NCI-H226
  GI50: 78.3 µM (inactive)
SK-MEL-28
  GI50: 37.4 µM (inactive)
SW-620
  GI50: 24.8 µM (inactive)
KM12
  GI50: 28.2 µM (inactive)
NCI-H23
  GI50: > 100 µM (inactive)
Hs-578T
  GI50: 19.5 µM (inactive)
TK-10
  GI50: 56 µM (inactive)
U-251
  GI50: 38.5 µM (inactive)
SF-295
  GI50: 57.7 µM (inactive)

## Cc1ccc(-c2[nH]c(=O)n(C3OC(CO)C(O)C(O)C3O)c(=O)c2C#N)cc1 (stereo not given)
T47D
  GI50: > 100 µM (inactive)
EKVX
  GI50: > 100 µM (inactive)
MDA-MB-231
  GI50: > 100 µM (inactive)
OVCAR-8
  GI50: > 100 µM (inactive)
UACC-62
  GI50: > 100 µM (inactive)
786-0
  GI50: > 100 µM (inactive)
IGROV-1
  GI50: > 100 µM (inactive)
A549
  GI50: > 100 µM (inactive)
SN12C
  GI50: > 100 µM (inactive)
DU-145
  GI50: > 100 µM (inactive)
SR
  GI50: 95.3 µM (inactive)
NCI-H226
  GI50: > 100 µM (inactive)
SK-MEL-28
  GI50: > 100 µM (inactive)
SW-620
  GI50: > 100 µM (inactive)
KM12
  GI50: > 100 µM (inactive)
NCI-H23
  GI50: > 100 µM (inactive)
Hs-578T
  GI50: > 100 µM (inactive)
TK-10
  GI50: > 100 µM (inactive)
U-251
  GI50: > 100 µM (inactive)
SF-295
  GI50: > 100 µM (inactive)

## CCN1C(=O)C(C)S/C1=N\NC(=O)CSc1nc2ccccc2c(=O)n1CC (stereo not given)
T47D
  GI50: > 100 µM (inactive)
EKVX
  GI50: > 100 µM (inactive)
MDA-MB-231
  GI50: > 100 µM (inactive)
OVCAR-8
  GI50: > 100 µM (inactive)
UACC-62
  GI50: > 100 µM (inactive)
786-0
  GI50: > 100 µM (inactive)
IGROV-1
  GI50: > 100 µM (inactive)
A549
  GI50: > 100 µM (inactive)
SN12C
  GI50: > 100 µM (inactive)
DU-145
  GI50: > 100 µM (inactive)
SR
  GI50: > 100 µM (inactive)
NCI-H226
  GI50: > 100 µM (inactive)
SK-MEL-28
  GI50: > 100 µM (inactive)
SW-620
  GI50: > 100 µM (inactive)
KM12
  GI50: > 100 µM (inactive)
NCI-H23
  GI50: > 100 µM (inactive)
Hs-578T
  GI50: > 100 µM (inactive)
TK-10
  GI50: > 100 µM (inactive)
U-251
  GI50: > 100 µM (inactive)
SF-295
  GI50: > 100 µM (inactive)

## O=C(c1ccsc1)c1cc2c(s1)C(=O)c1ccsc1C2=O
T47D
  GI50: 0.235 µM (active)
EKVX
  GI50: 0.2 µM (active)
MDA-MB-231
  GI50: 0.0755 µM (active)
OVCAR-8
  GI50: 0.178 µM (active)
UACC-62
  GI50: 0.194 µM (active)
786-0
  GI50: 0.189 µM (active)
IGROV-1
  GI50: 0.204 µM (active)
A549
  GI50: 0.612 µM (active)
SN12C
  GI50: 0.0635 µM (active)
DU-145
  GI50: 0.159 µM (active)
SR
  GI50: 1.87 µM (inactive)
NCI-H226
  GI50: 0.552 µM (active)
SK-MEL-28
  GI50: 0.142 µM (active)
SW-620
  GI50: 0.17 µM (active)
KM12
  GI50: 0.191 µM (active)
NCI-H23
  GI50: 0.137 µM (active)
Hs-578T
  GI50: 0.209 µM (active)
TK-10
  GI50: 0.64 µM (active)
U-251
  GI50: 0.159 µM (active)
SF-295
  GI50: 0.174 µM (active)

## CCOc1ccc(C2Oc3c(cccc3OC)C=C2[N+](=O)[O-])cc1OCC (stereo not given)
T47D
  GI50: 15.7 µM (inactive)
EKVX
  GI50: 16.7 µM (inactive)
MDA-MB-231
  GI50: 2.73 µM (inactive)
OVCAR-8
  GI50: 2 µM (inactive)
UACC-62
  GI50: 5.32 µM (inactive)
786-0
  GI50: 3.04 µM (inactive)
IGROV-1
  GI50: 4.92 µM (inactive)
A549
  GI50: 17.3 µM (inactive)
SN12C
  GI50: 10.8 µM (inactive)
DU-145
  GI50: 14.6 µM (inactive)
SR
  GI50: 1.62 µM (inactive)
NCI-H226
  GI50: 21.9 µM (inactive)
SK-MEL-28
  GI50: 2.24 µM (inactive)
SW-620
  GI50: 2.06 µM (inactive)
KM12
  GI50: 5.43 µM (inactive)
NCI-H23
  GI50: 6.67 µM (inactive)
Hs-578T
  GI50: 5.51 µM (inactive)
TK-10
  GI50: 15.5 µM (inactive)
U-251
  GI50: 6.49 µM (inactive)
SF-295
  GI50: 15.3 µM (inactive)
